The source of these data is ChEMBL document CHEMBL1151824, “Semisynthesis and biological activity of stemofoline alkaloids” (2009).

Experiment [1] has as its target Acetylcholinesterase (Homo sapiens) (UniProt P22303). As to the kind of experiment: Inhibition of AChE assessed as white zone of inhibition after 20 mins by TLC bioautography.
Another experiment relates to Pseudomonas aeruginosa. The experiment in a line: Antimicrobial activity against Pseudomonas aeruginosa ATCC 27853 after 24 hrs by broth dilution technique. The format is functional. Background: Broth dilution looks for growth in wells or tubes with falling amounts of substance.
A further experiment deals with Candida albicans. As to the kind of experiment: Antimicrobial activity against Candida albicans ATCC 90028 after 24 hrs by broth dilution technique. Particulars: ATCC 90028, 24 h. The format is functional.
The next experiment has as its system Staphylococcus aureus. The experiment in a line: Antimicrobial activity against Staphylococcus aureus ATCC 25923 after 24 hrs by broth dilution technique. The format is functional.
Where [2] appears, read: Pseudomonas aeruginosa, ATCC 27853, 24 h, read-out: MIC.

Values after ≈ are worked out from the molar mass of the structure shown. Where only a bound is given, the exact number is not on record here.

Sequence of Acetylcholinesterase (Homo sapiens) (P22303 whole entry): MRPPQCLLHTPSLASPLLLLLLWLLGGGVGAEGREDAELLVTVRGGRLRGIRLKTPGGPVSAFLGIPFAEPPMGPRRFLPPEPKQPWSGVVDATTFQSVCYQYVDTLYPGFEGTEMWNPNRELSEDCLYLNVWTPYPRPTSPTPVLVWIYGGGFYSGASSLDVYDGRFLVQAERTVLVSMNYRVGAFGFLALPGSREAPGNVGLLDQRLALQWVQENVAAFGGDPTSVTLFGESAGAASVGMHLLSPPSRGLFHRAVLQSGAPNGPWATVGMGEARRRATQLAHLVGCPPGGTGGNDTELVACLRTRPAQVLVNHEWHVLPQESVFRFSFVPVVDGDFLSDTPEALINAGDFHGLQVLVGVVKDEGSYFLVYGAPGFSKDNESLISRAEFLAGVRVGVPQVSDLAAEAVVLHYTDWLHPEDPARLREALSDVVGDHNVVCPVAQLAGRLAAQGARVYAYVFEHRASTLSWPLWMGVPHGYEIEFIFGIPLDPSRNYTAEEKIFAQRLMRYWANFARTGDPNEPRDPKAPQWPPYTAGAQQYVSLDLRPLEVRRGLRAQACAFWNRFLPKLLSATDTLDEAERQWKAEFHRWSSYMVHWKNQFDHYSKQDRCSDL

For the compound `CC/C=C/C12C3CC4C5[C@@H](C)/C(=C6/OC(=O)C(C)=C6OC)O[C@]5(O3)C1CCN42` (stereo partly drawn), the values for the MIC (in experiment [1]; in the experiment on Pseudomonas aeruginosa (setting [2])) were 1.3 ×10⁻² nmol and not below 125 µg/mL, respectively.
On to `CNC(=O)Oc1ccc2c(c1)[C@]1(C)CCN(C)[C@@H]1N2C`, for which, in experiment [1], the MIC came to 3.6 ×10⁻⁴ nmol.
Consider `COC1=C(C)C(=O)O/C1=C1\O[C@@]23O[C@H]4C[C@@H]([C@H]2[C@@H]1C)N1CC[C@H]3[C@@]41CC[C@@H](C)O` (mixture of isomers), for which the MIC in the experiment on Candida albicans is not below 125 µg/mL; in the experiment with Staphylococcus aureus (ATCC 25923, 24 h), not below 125 µg/mL; in experiment [1], 2.5 ×10⁻¹ nmol; in the experiment on Pseudomonas aeruginosa (setting [2]), 62.5 µg/mL.
In the case of `COC1=C(C)C(=O)O/C1=C1\O[C@@]23O[C@H]4C[C@@H]([C@H]2[C@@H]1C)N1CC[C@H]3[C@@]41CCC(C)O` (mixture of isomers), the MIC with Candida albicans is not below 125 µg/mL; with Staphylococcus aureus (ATCC 25923, 24 h), not below 125 µg/mL; in experiment [1], 2.5 ×10⁻² nmol; in the experiment on Pseudomonas aeruginosa (setting [2]) it was not below 125 µg/mL.
In the case of `COC1=C(C)C(=O)O/C1=C1\O[C@@]23O[C@H]4C[C@@H]([C@H]2[C@@H]1C)N1CC[C@H]3[C@@]41/C=C/C(C)O` (mixture of isomers; 1), the MIC in the experiment on Candida albicans was not below 125 µg/mL; against Staphylococcus aureus (ATCC 25923, 24 h) it was not below 125 µg/mL; in the experiment with Pseudomonas aeruginosa (setting [2]) it was 62.5 µg/mL.
For the compound `COC1=C(C)C(=O)O/C1=C1\O[C@@]23O[C@H]4C[C@@H]([C@H]2[C@@H]1C)N1CC[C@H]3[C@@]41/C=C/C(C)O` (mixture of isomers; 2) [listing 1 of 2 here], the MIC entry with Pseudomonas aeruginosa was “>=125 ug ml-1”.
On to `COC1=C(C)C(=O)O/C1=C1\O[C@@]23O[C@H]4C[C@@H]([C@H]2[C@@H]1C)N1CC[C@H]3[C@@]41/C=C/C(C)O` (mixture of isomers; 2) [listing 2 of 2 here], for which, in experiment [1], the MIC came out at 2.5 ×10⁻¹ nmol.
For `COC1=C(C)C(=O)O/C1=C1\O[C@@]23O[C@H]4C[C@@H]([C@H]2[C@@H]1C)N1CC[C@H]3[C@@]41C` (stereo in doubt; 3), the MIC in experiment [1] amounted to 2.9 ×10⁻¹ nmol.
On to `COC1=C(C)C(=O)O/C1=C1\O[C@@]23O[C@H]4C[C@@H]([C@H]2[C@@H]1C)N1CC[C@H]3[C@@]41C` (stereo in doubt; 15) [METHYLSTEMOFOLINE], for which the MIC is not below 125 µg/mL with Candida albicans; not below 125 µg/mL in the experiment on Staphylococcus aureus (ATCC 25923, 24 h); not below 125 µg/mL in the experiment on Pseudomonas aeruginosa (setting [2]).
In the experiment on Candida albicans, `C[C@@H]1[C@H](O)[C@@H](C)/C=C/C=C/C=C/C=C/C=C/C=C/C=C/[C@H](O[C@@H]2O[C@H](C)[C@@H](O)[C@H](N)[C@@H]2O)C[C@@H]2O[C@](O)(C[C@@H](O)C[C@@H](O)[C@H](O)CC[C@@H](O)C[C@@H](O)CC(=O)O[C@H]1C)C[C@H](O)[C@H]2C(=O)O` [AMPHOTERICIN B] showed an MIC of 0.35 µg/mL (≈ 0.379 µM).
Turning to GENTAMICIN, the MIC against Staphylococcus aureus and in the experiment on Pseudomonas aeruginosa was 1.41 µg/mL throughout.
